Measurements published in US20240082191A1, “TOPICAL F[…] PHOSPHOLIPID COMPOUNDS” (EGIS GYÓGYSZERGYÁR ZRT., priority 2021, published 2024).

Assays:
[1] = Pharmacokinetic studies of pregabalin (blood levels), oral and topical
human patient = conditions: 2.5% aqueous solution, topical; cited from earlier work
mice, allodynia = conditions: 2.5% aqueous solution, topical; cited from earlier work
[2] = system: rats with CCI of sciatic nerve; assay: Rat model of neuropathy: chronic constriction injury (CCI), paw withdrawal threshold with electronic von Frey device; assay type: in vivo; conditions: 16.66 mg/kg
From the text: Furthermore, based on the article Bennett G J, at al (Pain, A peripheral mononeuropathy in rat that produces disorders of pain sensation like those seen in man. 1988 April; 33(1):87-107) we have developed a method for the examination of the compositions of the present invention. Thus, we have examined the compositions according to the present invention also with a different model for measuring the alleviation of the peripheral neuropathic pain also. Namely, we have carried out examinations on rats using Chronic constriction injury (CCI) model. Three weeks following nerve injury rats were assessed for hind paw mechanical withdrawal thresholds. The paw withdrawal threshold (PWT) was determined with an Electronic von Frey device according to the modified up-down method of Dixon (Efficient analysis of experimental observations, Annu Rev Pharmacol Toxicol. 1980; 20:441-62). […] The method and results are shown in example 3 and on FIG. 9. […]
Briefly, under isoflurane anesthesia small blunt dissection was made into the skin of rat right thigh then three loosely constrictive ligatures were placed around common sciatic nerve (chronic constriction injury CCI). Three weeks following nerve injury rats were assessed for hind paw mechanical withdrawal thresholds. […]

CC(C)C[C@H](CN)CC(=O)O [pregabalin]
Blood levels after oral administration ([1]; oral, 16.66 mg/kg): relatively high blood levels
Amount of pregabalin entering the bloodstream during topical treatment ([1]; topical treatment): very small amounts
Duration of reduction of neuropathic pain in a human patient (human patient): 6 h
Time of maximum allodynia alleviating effect (mice, allodynia): 1 h
Reduction of hypersensitivity after oral administration [2]: not able to reduce hypersensitivity
